Test results as given in ChEMBL document CHEMBL5712891, “Inhibition of BET bromodomain-dependent XIAP and FLIP expression sensitizes KRAS-mutated NSCLC to pro-apoptotic agents” (Cell Death Dis, 2016).
Activity calls are given as the source filed them. The rule behind the calls is not given here.

Key:
[1] = tested on: DV-90; assay: Induction of apoptosis in human DV-90 cells assessed as late apoptotic cells at 2.5 uM for 24 hrs by annexin V-PI staining based flow cytometric analysis (reference value: 8.7%); format: functional
[2] = tested on: NCI-H1373; assay: Induction of apoptosis in human NCI-H1373 cells assessed as early apoptotic cells at 0.5 uM for 24 hrs by annexin V-PI staining based flow cytometric analysis (reference value: 1.7%); format: functional
[3] = tested on: NCI-H460; assay: Induction of apoptosis in human NCI-H460 cells assessed as necrotic cells at 0.5 uM for 24 hrs by annexin V-PI staining based flow cytometric analysis (reference value: 3.2%); format: functional
[4] = tested on: NCI-H460; assay: Induction of apoptosis in human NCI-H460 cells assessed as necrotic cells at 2.5 uM for 24 hrs by annexin V-PI staining based flow cytometric analysis (reference value: 3.2%); format: functional
[5] = tested on: DV-90; assay: Induction of cell cycle arrest in human DV-90 cells assessed as accumulation of cells at G0/G1 phase at 0.25 uM for 24 hrs by Click-iT EdU Alexa Fluor 647 flow cytometric assay kit analysis (reference value: 47%); format: functional
[6] = tested on: A549; assay: Induction of apoptosis in human A549 cells assessed as necrotic cells at 2.5 uM for 24 hrs by annexin V-PI staining based flow cytometric analysis (reference value: 0.9%); format: functional
[7] = tested on: NCI-H1373; assay: Induction of apoptosis in human NCI-H1373 cells assessed as viable cells at 0.5 uM for 24 hrs by annexin V-PI staining based flow cytometric analysis (reference value: 71.6%); format: functional; settings: read-out: Activity
[8] = tested on: DV-90; assay: Induction of apoptosis in human DV-90 cells assessed as early apoptotic cells at 2.5 uM for 48 hrs by annexin V-PI staining based flow cytometric analysis (reference value: 1.0%)
[9] = tested on: A549; assay: Induction of apoptosis in human A549 cells assessed as early apoptotic cells at 0.5 uM for 24 hrs by annexin V-PI staining based flow cytometric analysis (reference value: 0.2%); format: functional
[10] = tested on: NCI-H1373; assay: Induction of cell cycle arrest in human NCI-H1373 cells assessed as accumulation of cells at G0/G1 phase at 0.1 uM for 24 hrs by Click-iT EdU Alexa Fluor 647 flow cytometric assay kit analysis (reference value: 48%); format: functional
[11] = tested on: DV-90; assay: Induction of cell cycle arrest in human DV-90 cells assessed as accumulation of cells at S phase at 0.5 uM for 24 hrs by Click-iT EdU Alexa Fluor 647 flow cytometric assay kit analysis (reference value: 30%); format: functional
[12] = tested on: DV-90; assay: Induction of cell cycle arrest in human DV-90 cells assessed as accumulation of cells at G0/G1 phase at 0.1 uM for 24 hrs by Click-iT EdU Alexa Fluor 647 flow cytometric assay kit analysis (reference value: 45%); format: functional
[13] = tested on: NCI-H2030; assay: Downregulation of XIAP mRNA expression level in human NCI-H2030 cells at 0.1 to 1 uM for 24 hrs by qRT-PCR analysis; format: functional, cell-based; settings: dose 0.1-1 µM
[14] = tested on: LCLC-97TM1; assay: Downregulation of XIAP protein expression level in human LCLC-97TM1 cells at 1 uM for 24 hrs by […] analysis; format: functional, cell-based
[15] = tested on: NCI-H460; assay: Antiproliferative activity against human NCI-H460 cells at 500 to 2500 nM in presence of TNF by cell titre glo assay; format: functional, cell-based; settings: dose 500-2500 nM
[16] = tested on: NCI-H23; assay: Downregulation of FLIP mRNA expression level in human NCI-H23 cells at 0.1 to 1 uM for 24 hrs by qRT-PCR analysis; format: functional, cell-based; settings: dose 0.1-1 µM
[17] = tested on: NCI-H1373; assay: Induction of apoptosis in human NCI-H1373 cells assessed as necrotic cells at 2.5 uM for 24 hrs by annexin V-PI staining based flow cytometric analysis (reference value: 5.5%); format: functional
[18] = tested on: DV-90; assay: Induction of cell cycle arrest in human DV-90 cells assessed as accumulation of cells at G2/M phase at 0.5 uM for 24 hrs by Click-iT EdU Alexa Fluor 647 flow cytometric assay kit analysis (reference value: 24%); format: functional
[19] = tested on: DV-90; assay: Induction of apoptosis in human DV-90 cells assessed as late apoptotic cells at 2.5 uM for 24 hrs by annexin V-PI staining based flow cytometric analysis (reference value: 11.4%); format: functional
[20] = tested on: NCI-H441; assay: Downregulation of c-MYC mRNA expression level in human NCI-H441 cells at 0.1 to 1 uM for 24 hrs by qRT-PCR analysis; format: functional, cell-based; settings: dose 0.1-1 µM
[21] = tested on: NCI-H1373; assay: Antiproliferative activity against human NCI-H1373 cells at 500 to 2500 nM in presence of TNF by cell titre glo assay; format: functional, cell-based; settings: dose 500-2500 nM
[22] = tested on: NCI-H2030; assay: Antiproliferative activity against human NCI-H2030 cells at 500 to 2500 nM in presence of TNF by cell titre glo assay; format: functional, cell-based; settings: dose 500-2500 nM
[23] = tested on: NCI-H358; assay: Downregulation of FLIP mRNA expression level in human NCI-H358 cells at 0.1 to 1 uM for 24 hrs by qRT-PCR analysis; format: functional, cell-based; settings: dose 0.1-1 µM
[24] = tested on: NCI-H2030; assay: Downregulation of c-MYC protein level in human NCI-H2030 cells at 100 to 5000 nM upto 24 hrs by Western blot analysis; format: functional, cell-based; settings: dose 100-5000 nM
[25] = tested on: DV-90; assay: Induction of cell cycle arrest in human DV-90 cells assessed as accumulation of cells at G0/G1 phase at 1 uM for 24 hrs by Click-iT EdU Alexa Fluor 647 flow cytometric assay kit analysis (reference value: 44%); format: functional
[26] = tested on: NCI-H460; assay: Induction of apoptosis in human NCI-H460 cells assessed as late apoptotic cells at 0.5 uM for 24 hrs by annexin V-PI staining based flow cytometric analysis (reference value: 3.0%); format: functional
[27] = tested on: DV-90; assay: Induction of cell cycle arrest in human DV-90 cells assessed as accumulation of cells at G2/M phase at 1 uM for 24 hrs by Click-iT EdU Alexa Fluor 647 flow cytometric assay kit analysis (reference value: 24%); format: functional
[28] = tested on: NCI-H460; assay: Downregulation of XIAP protein expression level in human NCI-H460 cells at 1 uM for 24 hrs by […] analysis; format: functional, cell-based
[29] = tested on: DV-90; assay: Induction of apoptosis in human DV-90 cells assessed as necrotic cells at 2.5 uM for 24 hrs by annexin V-PI staining based flow cytometric analysis (reference value: 5.4%); format: functional
[30] = tested on: LCLC-97TM1; assay: Downregulation of c-MYC protein expression level in human LCLC-97TM1 cells at 1 uM for 24 hrs by […] analysis; format: functional, cell-based
[31] = tested on: A549; assay: Antitumor activity against human A549 cells assessed as test to control tumor ratio at 50 mg/kg, ip for 28 days relative to control; format: functional; settings: time 28 day
[32] = tested on: NCI-H1792; assay: Downregulation of FLIP mRNA expression level in human NCI-H1792 cells at 0.1 to 1 uM for 24 hrs by qRT-PCR analysis; format: functional, cell-based; settings: dose 0.1-1 µM
[33] = tested on: A549; assay: Induction of cell cycle arrest in human A549 cells assessed as accumulation of cells at G0/G1 phase at 0.25 uM for 24 hrs by Click-iT EdU Alexa Fluor 647 flow cytometric assay kit analysis (reference value: 61%); format: functional
[34] = tested on: A549; assay: Downregulation of XIAP mRNA expression level in human A549 cells at 0.1 to 1 uM for 24 hrs by qRT-PCR analysis; format: functional, cell-based; settings: dose 0.1-1 µM

Cc1sc2c(c1C)C(c1ccc(Cl)cc1)=N[C@@H](CC(=O)Nc1ccc(O)cc1)c1nnc(C)n1-2 [BIRABRESIB]
Activity [1]: 13.5% | Activity [2]: 2.6% | Activity [3]: 4.7% | Activity [4]: 3.9% | Activity [5]: 52% | Activity [6]: 1.1% | viability at 0.5 µM [7]: 67.4% | Activity [8]: 2.6% | Activity [9]: 0.1%

CCNC(=O)C[C@@H]1N=C(c2ccc(Cl)cc2)c2cc(OC)ccc2-n2c(C)nnc21 [MOLIBRESIB]
Activity [10]: 47% | Activity [11]: 25% | Activity [12]: 46%

Cc1sc2c(c1C)C(c1ccc(Cl)cc1)=N[C@@H](CC(=O)OC(C)(C)C)c1nnc(C)n1-2
Activity [13]: Active | Activity [14]: Active | Activity [15]: Active | Activity [16]: Active | Activity [17]: 17.2% | Activity [18]: 30% | Activity [19]: 16% | Activity [20]: Active | Activity [21]: Active | Activity [22]: Active | Activity [23]: Active | Activity [24]: inactive | Activity [25]: 56% | Activity [26]: 4.5% | Activity [27]: 27% | Activity [28]: Active | Activity [29]: 31% | Activity [30]: Active | T/C [31]: 79% | Activity [32]: Active | Activity [33]: 63% | Activity [34]: Active
